In EP0227100A2, “N-Vinylimidazoles and -triazoles and pharmaceutical compositions containing them” (SHIONOGI SEIYAKU KABUSHIKI KAISHA, priority 1985, dated 1987):
In brackets after ≈: the same amount, converted by molar mass.

Assays:
Type in all cases: cell-based
Trichophyton asteroides = experiment: Minimum inhibitory concentration against Trichophyton asteroides, test tube experiment in Sabouraud's dextrose broth
From the text: In the test, Sabouraud's dextrose broth* was used.

C. albicans KE-2 = experiment: Inhibition test against pseudomycelium formation of Candida albicans; conditions: minimum effective concentration preventing typical pseudomycelium formation; EMEM with 20 % calf serum, 1 x 10⁶ yeast cells per milliliter, 18 hr. at 37 °C; read-out: Inhibitory Concentration of Pseudomyselium Formation
Procedure: Inhibition test against pseudomycelium formation of Candida albicans.
C. albicans KE-2 was inoculated to EMEM (Nissan 2 made by Nissui Seiyaku, Ltd.) supplemented with 20 % calf serum so that its final inoculum might be 1 x 10⁶ yeast cells per milliliter. The test compounds were added thereon in two fold dilution series. After inocubation for 18 hr. at 37 °C, the fungal growth in each drug concentration was smeared and fixed on a slide glass, and its morphological feature on the presence or absence of the pseudomycelium formation was examined by a microscope following Giemsa staining. Minimum effective concentration was defined as the lowest concentration of the compound which prevented typical pseudomycelium formation.

[1] = system: influenza virus Ao/WSN (H₁N₁); experiment: Antiviral activity: Plaque Reduction Test in MDCK cells; conditions: unidentified influenza virus, read-out: ED 50 (1) Plaque Reduction Test
[2] = system: influenza virus Ao/WSN (H₁N₁); experiment: microbe, parasite or virus in culture; conditions: unidentified influenza virus, MDCK, 24 h, read-out: ED 50 (2) Virus Yield Test
in vitro = conditions: dog, mdck
Procedure: (3) Colony Formation Test The action to the host cell was examined by the following method: MDCK cells (coming from dog's kidney) were adjusted to a concentration of 200 cells/ml with a growth medium and poured into each pore of Lindbrow's 12 pores microplate 1 ml by 1 ml. The test compound diluted with a growth medium was added to the pores 1 ml by 1 ml, and the whole was cultivated in a cultivating apparatus filled with 5% carbon dioxide gas at 37°C for 7 days. After dyeing with 1% crystal violet dyeing solution for 15 min, the number of cell colonies was counted. The concentration of the test compound which inhibited 50% the growth of cell colonies in comparison with obtained without using the test compound was evaluated as TD₅₀ value for judging the toxicity against cell.

Row | SMILES | MIC (Trichophyton asteroides) | minimal effective concentration (C. albicans KE-2) | also measured
1 | C=C(c1c(O)cccc1OCCCC)n1ccnc1 [Compound I-4] | 0.1 µg/mL (≈ 0.387 µM) |  | 
2 | CCC(CC)=C(c1cc(Cl)ccc1O)n1ccnc1 [Compound I-5] | 0.1 µg/mL (≈ 0.361 µM) | 0.63 µg/mL | 
3 | CCC(CC)=C(c1cc(Cl)ccc1O)n1cncn1 [Compound I-6] | 0.1 µg/mL (≈ 0.36 µM) |  | 
4 | Oc1ccc(Cl)cc1/C(=C/c1ccc(Cl)cc1Cl)n1ccnc1 [Compound I-9] | 0.1 µg/mL (≈ 0.273 µM) |  | 
5 | Oc1ccc(Cl)cc1C(=C1CCCCC1)n1ccnc1 [Compound I-22] | 0.1 µg/mL (≈ 0.346 µM) |  | 
6 | C=C(c1cc(-c2ccccc2)ccc1OC)n1ccnc1 [Compound I-49] | 0.1 µg/mL (≈ 0.362 µM) |  | 
7 | CCC(CC)=C(c1cc(Cl)ccc1OC)n1ccnc1 [Compound I-50] | 0.1 µg/mL (≈ 0.344 µM) | 0.31 µg/mL | 
8 | CCCCOc1ccc(Cl)cc1C(=C(CC)CC)n1ccnc1 [Compound I-51] |  | 0.31 µg/mL | 
9 | CCC(CC)=C(c1cc(Cl)ccc1OC(C)C)n1ccnc1 [Compound I-52] | 0.1 µg/mL (≈ 0.314 µM) | 0.08 µg/mL | 
10 | COc1ccc(Cl)cc1C(=C1CCCCC1)n1ccnc1 [Compound I-56] | 0.1 µg/mL (≈ 0.33 µM) |  | 
11 | COc1ccc(Cl)cc1C(=C1CCCCC1)n1cncn1 [Compound I-57] |  |  | EC50 [1]: 48 µg/mL (≈ 158 µM); EC50 [2]: 30 µg/mL (≈ 98.8 µM); CC50 at 168 h (in vitro): 70 µg/mL (≈ 230 µM)
12 | CC(C)Oc1ccc(Cl)cc1C(=C1CCCCC1)n1cncn1 [Compound I-58] |  | 0.16 µg/mL | 
13 | CC(C)Oc1ccc(Cl)cc1C(=C1CCCCC1)n1ccnc1 [Compound I-66] | 0.1 µg/mL (≈ 0.302 µM) | 0.08 µg/mL | 
14 | C=C(c1cc(Cl)ccc1OCC(=O)c1ccc(Cl)cc1)n1ccnc1 [Compound I-107] | 0.1 µg/mL (≈ 0.268 µM) |  | 
